Assay results: patent US5006343A, “Pulmonary administration of pharmaceutically active substances” (priority 1988, dated 1991)

Tests used:
[1] = In vivo anesthetized rat model, radiolabelled Vitamin E in serum, 24 hour timecourse
Procedure: (§1) The in vivo assay employed in examples 2 and 3 was performed by the following general procedure. The compositions were administered to the lungs of anesthetized adult Sprague-Dawley rats by endotracheal cannula. At various times after administration of the compositions, the animals were sacrificed by overdosing with anesthetics. The lungs and serum were obtained from each rat for analysis. The lung tissue was minced and extracted with 2:1 chloroform:methanol. The serum was extracted with 2:1 chloroform:methanol. The serum was sampled to get an indication of the amount of pharmaceutically active substance being transported into general circulation.
(§2) Liposomes were prepared as described in section A with the addition of ^3 H-Vitamin E in the lipid mixture before evaporation. The following weight ratios of lipid and Vitamin E were used to prepare the liposomes:
(§3) DPPC:PC:PG:Cholesterol:Vitamin E [drawing 1] The chloroform was evaporated from the lipid/Vitamin E mixture by rotary evaporation. The dried lipid/Vitamin E mixture was rehydrated in MEM-Krebs to a concentration of 87 μg Vitamin E/ml. Alveolar surfactant protein SP-A was added to the liposome mixture to a concentration of 100 μg/ml.
(§4) The liposomes containing Vitamin E prepared as in Example I above were tested in vivo by administration to rats according to the procedure outlined above in section C. […]

[2] = ASP activity (in vivo assay of Robertson, or in vitro surface tension assay); conditions: in combination as well as independently; result in words
Procedure: In this assay, the sample to be assessed is administered through an endotracheal tube to fetal rabbits or lambs delivered prematurely by Caesarian section. (These "preemies" lack their own alveolar surfactant, and are supported on a ventilator.) Measurements of lung Compliance, blood gases and ventilator pressure provide indices of activity.
Preliminary assessment of activity may also be made by an in vitro assay, for example that of Kihg, R. J., et al, Am J Physiol (1972) 223:715-726, or that illustrated below of Hawgood, et al, which utilizes a straightforward measurement of surface tension at an air-water interface when the protein is mixed with a phospholipid vesicle preparation. […] The ASP activity can be used to enhance pulmonary administration of pharmaceutically active substances.

[3] = In vivo anesthetized rat model, lung incorporation of radiolabelled Vitamin E, 60 minute timecourse; parameters: species or system Sprague-Dawley rats; conditions: result in words
Procedure: The serum was extracted with 2:1 chloroform:methanol.
The animals were sacrificed at 0 and 60 minutes and the lungs were tested for incorporation of radiolabelled Vitamin E as described above, with the following results: […]

type II cells [4] = test: In vitro uptake of Vitamin E liposomes by freshly isolated type II cells; type: cell-based, male Sprague-Dawley rats; conditions: result in words
Procedure: (§5) The in vitro assay employed in examples 1 and 4 was performed by the following general procedure. Freshly isolated type II cells were prepared by the method of Dobbs, et al., Am. Rev. Respir. Sid. (1986) 134:141-145. Briefly, lungs of specific-pathogen-free male Sprague-Dawley rats weighing 160-180 g (Bantin-Kingman, Fremont, CA) were digested with elastase (Cooper Biomedical, Malverne, PA). The minced digest was filtered through a series of nylon meshes and cells were collected by centrifugation. The cells were then plated on IgG-coated plates and the non-type II cells, which were primarily macrophages and lymophocytes, adhered to the plate over a period of one hour at 37° C. in a 10% CO2 /air incubator. The non-adherent cells were removed by gentle panning and were centrifuged at 130×g for 8 minutes. This cell pellet contained 85±1% type II cells. The viability of the cells as determined by erythrosin B exclusion averaged 97±1%.
(§6) 2.5×10^6 freshly isolated type II cells were suspended in 1 ml of MEM-Krebs. The concentration of calcium was […]. […] Zero time values were determined by centrifugation and washing of the cells immediately after addition of liposomes. […] The final cell pellet was resuspended in 0.5 ml of MEM-Krebs; 0.3 ml was analyzed for radioactivity in a Beckman LS-75000 scintillation counter. […]

type II cells [5] = test: In vitro uptake of 6-carboxy-fluorscein liposomes by freshly isolated type II cells; type: cell-based, male Sprague-Dawley rats; conditions: result in words
Procedure: as §5, §6

type II cells [6] = conditions: result in words; cited from earlier work
[7] = In vivo anesthetized rat model, radiolabelled Vitamin E in lung, 24 hour timecourse
Procedure: as §1, §2, §3, §4

[8] = given systemically; cited from earlier work
[9] = 24 hour timecourse, result in words

## alveolar surfactant protein SP-A: relatively high molecular weight (of the order of 32 kD) apoprotein associated with the lung surfactant complex; sequence of FIG. 1
[1]; [9]
  effect on serum levels of radiolabelled vitamin E: enhances serum levels of radiolabelled vitamin E
[2]
  ASP activity: show ASP activity in combination as well as independently
[3]
  effect on transport of the liposomes containing Vitamin E to lung tissue: stimulates the transport of the liposomes containing Vitamin E to lung tissue in a rapid fashion
Type II cells [4]
  effect on uptake of liposomes containing Vitamin E: stimulates the uptake
Type II cells [5]
  effect on uptake of liposomes containing 6-carboxy-fluorscein: stimulates the uptake
Type II cells [6]
  cell specificity of effects: seem specific to type II cells and macrophages
[7]; [9]
  effect on transport to the lung: enhances transport to the lung

## N=C(N)c1ccc(OCCCCCOc2ccc(C(=N)N)cc2)cc1 [Pentamidine isethionate, pentamidine isethionate]
[8]
  toxicity: quite toxic if given systemically

## Vitamin E [reference compound]
[1]; rat, in vivo
  serum radiolabelled Vitamin E, with vs. without SP-A: The same non-specific effect is also seen in the serum
[7]; rat, in vivo
  amount of radiolabelled Vitamin E in the lung, with vs. without SP-A: comparable in experimental and control animals

B1: SP-B: the larger of the two hydrophobic proteins, about 18 kD on gels under non-reducing conditions; sequence of FIG. 2 (protein, UniProt P07988 201-279, looked up)
Pulmonary …: FPIPLPYCWLCRALIKRIQAMIPKGALAVAVAQVCRVVPLVAGGICQCLAERYSVILLDTLLGRMLPQLVCRLVLRCSM
modifications: Pulmonary surfactant-associated protein B
[2]
  ASP activity: show ASP activity in combination as well as independently
